Measurements published in patent EP4707280A1, “1,4-CINEOLE DERIVATIVE AND INTERMEDIATE THEREOF, HERBICIDE CONTAINING SAID DERIVATIVE AS ACTIVE INGREDIENT, METHOD FOR USING HERBICIDE, AND METHOD FOR PREPARING AGROCHEMICAL COMPOSITION” (HOKKO CHEMICAL INDUSTRY CO., LTD., priority 2023, dated 2024).

Experiments:
Type in all cases: in vivo
[1] = tested on: Echinochloa crus-galli var. formosensis; experiment: Test Example 6: herbicidal effect test by application during growth period of paddy rice (low dose); settings: Echinochloa crus-galli; 7.5 g per 10 ares; applied seven days after sowing, flooded pots; 14 days after application; read-out: weed inhibition rate
Summary of the method: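 Paddy-soil pots, flooded ~3 cm after sowing weed seeds at 0-1 cm depth, greenhouse-grown. Seven days after sowing, diluted emulsifiable concentrate applied by dropper at 7.5 g active ingredient per 10 ares. Weed inhibition rate (%) scored 14 days after application, in duplicate.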

[2] = tested on: Echinochloa crus-galli var. formosensis; experiment: Test Example 5: herbicidal effect test by soil application in paddy rice (low dose); settings: Echinochloa crus-galli, soil, 336 h; 7.5 g per 10 ares; applied immediately after sowing, flooded pots; 14 days after application; read-out: weed inhibition rate
Summary of the method: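 Pots of puddled, fertilized paddy soil receive 30 seeds per species at 0–1 cm depth and are flooded to about 3 cm. The diluted emulsifiable concentrate is then dropped onto the water, delivering 7.5 g active ingredient per 10 ares. Greenhouse grown; herbicidal effect scored 14 days later, two replicates.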

Echinochloa crus-galli [3] = experiment: Test Example 4: herbicidal effect test by stem and leaf treatment in upland field; settings: Echinochloa crus-galli; 120 g per 10 ares; sprayed seven days after sowing, upland soil; 14 days after application; read-out: weed inhibition rate
[4] = tested on: Echinochloa crus-galli var. formosensis; experiment: Test Example 2: herbicidal effect test by application during growth period of paddy rice; settings: Echinochloa crus-galli; 120 g per 10 ares; applied seven days after sowing, flooded pots; 14 days after application; read-out: weed inhibition rate
Summary of the method: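 Weeds sown into puddled, flooded paddy soil received a post-emergence water application of emulsifiable concentrate at 120 g active ingredient per 10 ares, seven days after sowing. Herbicidal effect was rated 14 days later as inhibition (%).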

[5] = tested on: Echinochloa crus-galli var. formosensis; experiment: Test Example 1: herbicidal effect test by soil application in paddy rice; settings: Echinochloa crus-galli, soil, 336 h; 120 g active ingredient per 10 ares; applied immediately after sowing, flooded pots; 14 days after application; read-out: weed inhibition rate
Summary of the method: (§1)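 Weeds sown 0–1 cm deep (30 seeds each) into fertilized, puddled paddy soil in Wagner pots. Pots are flooded immediately, water held near 3 cm, and the diluted emulsifiable concentrate is dripped in at once, delivering 120 g active ingredient per 10 ares under glass-greenhouse management.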

Echinochloa crus-galli [6] = experiment: Test Example 7: herbicidal effect test by soil application in upland field (low dose); settings: Echinochloa crus-galli, 7.5 g per 10 ares, sprayed one day after sowing, 14 days after application, read-out: weed inhibition rate
Description: (§2) The present test was conducted in duplicate for each chemical concentration group, and the weed inhibition rate (%) was determined 14 days after chemical application using the following formula (Math. 1). [formula]
(§3) Pots with an area of 36 cm^2 were filled with upland soil (alluvial loam), twenty seeds each of weeds of Digitaria ciliaris, and Echinochloa crus-galli were uniformly mixed with the top 1 cm layer of soil and the surface was lightly pressed down. One day after sowing, an emulsifiable concentrate prepared according to Formulation Example 5 using the compound shown below was diluted with water, and the diluted solution was sprayed onto the soil surface at a rate of 100 liters per 10 ares. The amount of the active ingredient to be applied was equivalent to 7.5 g per 10 ares. Fourteen days after chemical application, the herbicidal effect was evaluated according to the same criteria as in Test Example 1.

Digitaria ciliaris [7] = experiment: as above; settings: Digitaria ciliaris, 7.5 g per 10 ares, sprayed one day after sowing, 14 days after application, read-out: weed inhibition rate
Description: as §2, §3

Echinochloa crus-galli [8] = experiment: Test Example 3: herbicidal effect test by soil application in upland field; settings: Echinochloa crus-galli, 120 g per 10 ares, sprayed one day after sowing, 14 days after application, read-out: weed inhibition rate
Summary of the method: (§4)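 Pre-emergence test: seeds mixed into top 1 cm of alluvial loam upland soil in pots; emulsifiable concentrate diluted in water sprayed on soil one day after sowing at 100 L/10 a, 120 g a.i./10 a. Weed inhibition rate (%) scored at 14 days, in duplicate.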

Digitaria ciliaris [9] = experiment: as above; settings: Digitaria ciliaris, 120 g per 10 ares, sprayed one day after sowing, 14 days after application, read-out: weed inhibition rate
Summary of the method: as §4

Digitaria ciliaris [10] = experiment: Test Example 4: herbicidal effect test by stem and leaf treatment in upland field; settings: Digitaria ciliaris; 120 g per 10 ares; sprayed seven days after sowing, upland soil; 14 days after application; read-out: weed inhibition rate
Echinochloa crus-galli [11] = experiment: Test Example 8: herbicidal effect test by stem and leaf treatment in upland field (low dose); settings: Echinochloa crus-galli; 7.5 g per 10 ares; sprayed seven days after sowing, upland soil; 14 days after application; read-out: weed inhibition rate
Description: as §2
as §3, with “Seven days” for “One day”

Digitaria ciliaris [12] = experiment: as above; settings: Digitaria ciliaris; 7.5 g per 10 ares; sprayed seven days after sowing, upland soil; 14 days after application; read-out: weed inhibition rate
Description: as §2
as §3, with “Seven days” for “One day”

Scirpus juncoides = experiment: Test Example 1: herbicidal effect test by soil application in paddy rice; settings: Schoenoplectiella juncoides, soil, 336 h; 120 g active ingredient per 10 ares; applied immediately after sowing, flooded pots; 14 days after application; read-out: weed inhibition rate
Summary of the method: as §1

CC(C)C12CC(OCc3ccccc3Cl)C(C)(CC1Br)O2 (stereo not drawn) [1-1358, 5-bromo-2-[(2-chlorophenyl)methoxy]-1-methyl-4-isopropyl-7-oxabicyclo[2.2.1]heptane]
≥ 80%: inhibition at 75 g/ha [1] | inhibition at 75 g/ha [2] | inhibition at 1200 g/ha (Echinochloa crus-galli [3]) | inhibition at 1200 g/ha [4] | pest or weed control at 1200 g/ha [5] | inhibition at 75 g/ha (Echinochloa crus-galli [6]) | inhibition at 75 g/ha (Digitaria ciliaris [7]) | inhibition at 1200 g/ha (Echinochloa crus-galli [8]) | inhibition at 1200 g/ha (Digitaria ciliaris [9]) | inhibition at 1200 g/ha (Digitaria ciliaris [10]) | inhibition at 75 g/ha (Echinochloa crus-galli [11]) | inhibition at 75 g/ha (Digitaria ciliaris [12])

CC(C)C12CC(OCc3ccccc3Br)C(C)(CC1Br)O2 (stereo not drawn) [1-1361, 5-bromo-2-[(2-bromophenyl)methoxy]-1-methyl-4-isopropyl-7-oxabicyclo[2.2.1]heptane]
≥ 80%: inhibition at 75 g/ha [1] | inhibition at 75 g/ha [2] | inhibition at 1200 g/ha (Echinochloa crus-galli [3]) | inhibition at 1200 g/ha [4] | pest or weed control at 1200 g/ha [5] | inhibition at 75 g/ha (Echinochloa crus-galli [6]) | inhibition at 75 g/ha (Digitaria ciliaris [7]) | inhibition at 1200 g/ha (Echinochloa crus-galli [8]) | inhibition at 1200 g/ha (Digitaria ciliaris [9]) | inhibition at 1200 g/ha (Digitaria ciliaris [10]) | inhibition at 75 g/ha (Echinochloa crus-galli [11]) | inhibition at 75 g/ha (Digitaria ciliaris [12])

CC(C)C12CC(OCc3c(F)cccc3F)C(C)(CC1Br)O2 (stereo not drawn) [1-1379, 5-bromo-2-[(2,6-difluorophenyl)methoxy]-1-methyl-4-isopropyl-7-oxabicyclo[2.2.1]heptane]
≥ 80%: inhibition at 75 g/ha [1] | inhibition at 75 g/ha [2] | inhibition at 1200 g/ha (Echinochloa crus-galli [3]) | inhibition at 1200 g/ha [4] | pest or weed control at 1200 g/ha [5] | inhibition at 75 g/ha (Echinochloa crus-galli [6]) | inhibition at 75 g/ha (Digitaria ciliaris [7]) | inhibition at 1200 g/ha (Echinochloa crus-galli [8]) | inhibition at 1200 g/ha (Digitaria ciliaris [9]) | inhibition at 1200 g/ha (Digitaria ciliaris [10]) | inhibition at 75 g/ha (Echinochloa crus-galli [11]) | inhibition at 75 g/ha (Digitaria ciliaris [12])

CC(C)C12CC(OCc3c(F)cccc3Cl)C(C)(CC1Br)O2 (stereo not drawn) [1-1381, 5-bromo-2-[(2-chloro-6-fluorophenyl)methoxy]-1-methyl-4-isopropyl-7-oxabicyclo[2.2.1]heptane]
≥ 80%: inhibition at 75 g/ha [1] | inhibition at 75 g/ha [2] | inhibition at 1200 g/ha (Echinochloa crus-galli [3]) | inhibition at 1200 g/ha [4] | pest or weed control at 1200 g/ha [5] | inhibition at 75 g/ha (Echinochloa crus-galli [6]) | inhibition at 75 g/ha (Digitaria ciliaris [7]) | inhibition at 1200 g/ha (Echinochloa crus-galli [8]) | inhibition at 1200 g/ha (Digitaria ciliaris [9]) | inhibition at 1200 g/ha (Digitaria ciliaris [10]) | inhibition at 75 g/ha (Echinochloa crus-galli [11]) | inhibition at 75 g/ha (Digitaria ciliaris [12])

CC(C)C12CC(OCc3c(F)cccc3Br)C(C)(CC1Br)O2 (stereo not drawn) [1-1598, 5-bromo-2-[(2-bromo-6-fluorophenyl)methoxy]-1-methyl-4-isopropyl-7-oxabicyclo[2.2.1]heptane]
≥ 80%: inhibition at 75 g/ha [1] | inhibition at 75 g/ha [2] | inhibition at 1200 g/ha (Echinochloa crus-galli [3]) | inhibition at 1200 g/ha [4] | pest or weed control at 1200 g/ha [5] | inhibition at 75 g/ha (Echinochloa crus-galli [6]) | inhibition at 75 g/ha (Digitaria ciliaris [7]) | inhibition at 1200 g/ha (Echinochloa crus-galli [8]) | inhibition at 1200 g/ha (Digitaria ciliaris [9]) | inhibition at 75 g/ha (Echinochloa crus-galli [11]) | inhibition at 75 g/ha (Digitaria ciliaris [12])

CC(C)[C@]12C[C@@H](OCc3ccc(F)cc3F)[C@](C)(CC1=O)O2 [2-16, (1R,4S,5R)-5-((2,4-difluorobenzyl)oxy)-1-isopropyl-4-methyl-7-oxabicyclo[2.2.1]heptan-2-one]
≥ 80%: inhibition at 75 g/ha [1] | inhibition at 75 g/ha [2] | inhibition at 1200 g/ha (Echinochloa crus-galli [3]) | inhibition at 1200 g/ha [4] | pest or weed control at 1200 g/ha [5] | pest or weed control at 1200 g/ha (Scirpus juncoides) | inhibition at 75 g/ha (Echinochloa crus-galli [6]) | inhibition at 75 g/ha (Digitaria ciliaris [7]) | inhibition at 1200 g/ha (Echinochloa crus-galli [8]) | inhibition at 1200 g/ha (Digitaria ciliaris [9]) | inhibition at 1200 g/ha (Digitaria ciliaris [10]) | inhibition at 75 g/ha (Echinochloa crus-galli [11]) | inhibition at 75 g/ha (Digitaria ciliaris [12])
